The results in this text go back to ChEMBL document CHEMBL1201862, “PubChem BioAssay data set” (2004).

Some test systems named below: COLO 205; DU-145; EKVX; HCT-116; HCT-15; HOP-92; KM12; LOX IMVI; MDA-N; NCI-H226; OVCAR-3; RXF 393; SF-539; SK-MEL-28; SK-MEL-2; TK-10; U-251; UACC-257; UACC-62.
Experiment in all cases: NCI tumour cell line growth inhibition, 48 h

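How tested: cells in 96-well plates exposed to compound for 48 hours at five concentrations. The concentration for 50% growth inhibition is given as GI50.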 Active and inactive are the calls of the source. No stated cut-off is given here; in the data, active = GI50 up to about 1.1 µM and inactive = higher.

Regarding `CCN1CCC(O)(/C=C/c2cccc(C)c2)C(C(=O)/C=C/c2cccc(C)c2)C1` (stereo not drawn), the GI50 was 1.95 µM (inactive) in the assay with COLO 205; 3.94 µM (inactive) with DU-145; 2.04 µM (inactive) with EKVX; 2.18 µM (inactive) in the assay on HCT-116; 2.25 µM in the assay with HCT-15; 2.17 µM (inactive) in the assay with HOP-92. In addition, the GI50 is 1.56 µM (inactive) in the assay with KM12; 2.17 µM (inactive) in the assay on LOX IMVI; 2.66 µM (inactive) with MDA-N; 2.42 µM (inactive) with NCI-H226; 3.48 µM (inactive) in the assay with OVCAR-3; 1.67 µM (inactive) in the assay with RXF 393. Further, the GI50 in the assay with SF-539 is 2.17 µM (inactive); with SK-MEL-28, 2.19 µM (inactive); in the assay with SK-MEL-2, 2.31 µM (inactive); in the assay with TK-10, 1.71 µM (inactive); with U-251, 1.72 µM (inactive); with UACC-257, 2.53 µM (inactive). Also, the GI50 in the assay with UACC-62 is 1.82 µM (inactive).

With `CCCCCCCCCCCCC(=O)OC(c1cnco1)c1nc(C(O)CC(O)C(O)C(C)O)co1` (stereo not drawn), the GI50 is 0.273 µM (active) in the assay with COLO 205; > 10 µM (inactive) in the assay on DU-145; 11.8 µM (inactive) in the assay on EKVX; 0.157 µM (active) with HCT-116; 9.44 µM in the assay on HCT-15; 1.34 µM (inactive) with HOP-92. Also, the GI50 was 0.766 µM (active) with KM12; 0.144 µM (active) with LOX IMVI; 1.95 µM (inactive) in the assay with MDA-N; 9.18 µM (inactive) with NCI-H226; 2.85 µM (inactive) with OVCAR-3; 1.38 µM (inactive) with RXF 393. Moreover, the GI50 in the assay on SF-539 was 0.942 µM (active); in the assay on SK-MEL-28 it was 0.5 µM (active); in the assay with SK-MEL-2 it was 0.63 µM (active); with TK-10 it was 5.62 µM (inactive); in the assay on U-251, 0.129 µM (active); with UACC-257, 0.755 µM (active). For the same compound, the GI50 in the assay with UACC-62 was 0.341 µM (active).

For the compound `CN(C)c1ccc(/C(Br)=C2\OC(=O)c3ccccc32)cc1`, the GI50 in the assay with COLO 205 was 56.1 µM (inactive); in the assay on DU-145 it was > 100 µM (inactive); in the assay with EKVX it was > 100 µM (inactive); with HCT-116 it was > 100 µM (inactive); with HCT-15, 87.3 µM; in the assay on KM12, 39.2 µM (inactive). Moreover, the GI50 is > 100 µM (inactive) with LOX IMVI; 40.1 µM (inactive) with MDA-N; 24.4 µM (inactive) in the assay with NCI-H226; > 100 µM (inactive) with SF-539; > 100 µM (inactive) with SK-MEL-28; 92.9 µM (inactive) in the assay on SK-MEL-2. Further, the GI50 in the assay on TK-10, in the assay with U-251, in the assay with UACC-257 and with UACC-62 was > 100 µM (inactive) throughout.

In the case of `CSc1cc(Cl)c(C)cc1S(=O)(=O)NC(=O)NNc1ccc(F)c(Cl)c1`, the GI50 in the assay with COLO 205 was > 100 µM (inactive); with DU-145, > 100 µM (inactive); in the assay with EKVX, > 100 µM (inactive); in the assay with HCT-116, > 100 µM (inactive); in the assay with HCT-15, more than 100 µM; in the assay on KM12, > 100 µM (inactive). For the same compound, the GI50 with LOX IMVI, with MDA-N, with NCI-H226, with OVCAR-3, with RXF 393 and in the assay on SF-539 was > 100 µM (inactive) each time. Further, the GI50 in the assay on SK-MEL-28, with SK-MEL-2 and in the assay with U-251 was > 100 µM (inactive) throughout.

Consider `CSc1cnc2ccccc2c1Sc1cn(C)c2ccccc2c1=O`, for which the GI50 in the assay with COLO 205 was 17 µM (inactive); in the assay with EKVX, 29.3 µM (inactive); in the assay on HCT-116, 10.2 µM (inactive); with HCT-15, 35.8 µM; in the assay on HOP-92, 12 µM (inactive); with KM12, 25.8 µM (inactive). Also, the GI50 in the assay on LOX IMVI is 14.6 µM (inactive); with NCI-H226 it was 26.1 µM (inactive); in the assay on OVCAR-3 it was 28.7 µM (inactive); with RXF 393 it was 38.4 µM (inactive); in the assay on SF-539, 29 µM (inactive); with SK-MEL-28, 27.9 µM (inactive). Also, the GI50 is 21.8 µM (inactive) with SK-MEL-2; > 100 µM (inactive) in the assay on TK-10; 7.14 µM (inactive) with U-251; 59.4 µM (inactive) in the assay with UACC-257; 21.9 µM (inactive) in the assay on UACC-62.

For `O=C1CSc2nc3ccccc3n2/C=N\N1`, the GI50 with COLO 205 was > 100 µM (inactive); in the assay with DU-145, > 100 µM (inactive); in the assay on HCT-116, > 100 µM (inactive); in the assay with HCT-15, more than 100 µM; in the assay with HOP-92, > 100 µM (inactive); in the assay on KM12 it was > 100 µM (inactive). Further, the GI50 with LOX IMVI, in the assay on MDA-N, in the assay on NCI-H226, in the assay on RXF 393, in the assay on SK-MEL-28 and in the assay with SK-MEL-2 was > 100 µM (inactive) each time. Also, the GI50 in the assay on TK-10, with U-251, in the assay on UACC-257 and with UACC-62 was > 100 µM (inactive) each time.

As for `COc1cc(CNc2nc3c(N)cc(C(F)(F)F)cc3nc2-c2ccccc2)cc(OC)c1OC`, the GI50 is 38.5 µM (inactive) with COLO 205; 3.41 µM (inactive) with EKVX; 19.7 µM (inactive) with HCT-116; 14.9 µM in the assay on HCT-15; 22.8 µM (inactive) with HOP-92; 18 µM (inactive) in the assay with KM12. Besides, the GI50 with LOX IMVI is 18.5 µM (inactive); in the assay on NCI-H226 it was 50.2 µM (inactive); in the assay on OVCAR-3 it was 36.1 µM (inactive); in the assay with RXF 393, 8.47 µM (inactive); with SF-539, > 10 µM (inactive); in the assay on SK-MEL-28, 53.5 µM (inactive). Also, the GI50 in the assay with SK-MEL-2 was 52.1 µM (inactive); in the assay on TK-10 it was > 10 µM (inactive); in the assay on U-251, 63.8 µM (inactive); in the assay with UACC-257, 63 µM (inactive); with UACC-62, 35.2 µM (inactive).

As to `O=C(O)Cc1cccc2c1Oc1ccccc1S2`, the GI50 with COLO 205 was > 100 µM (inactive); in the assay with EKVX, > 100 µM (inactive); in the assay with HCT-116, > 100 µM (inactive); in the assay on HCT-15 it was more than 100 µM; in the assay on HOP-92, > 100 µM (inactive); in the assay with KM12 it was > 100 µM (inactive). Further, the GI50 in the assay on LOX IMVI, in the assay with NCI-H226, with OVCAR-3, in the assay on RXF 393, with SF-539 and in the assay with SK-MEL-28 was > 100 µM (inactive) throughout. The GI50 with SK-MEL-2, in the assay with TK-10, with U-251, with UACC-257 and with UACC-62 was > 100 µM (inactive) each time.

Regarding `O=C(CC(C(=O)c1cccs1)c1ccc2c(c1)OCO2)c1ccc(Br)cc1` (stereo not drawn), the GI50 with COLO 205 was > 100 µM (inactive); with DU-145, > 100 µM (inactive); with EKVX, > 100 µM (inactive); in the assay on HCT-15 it was more than 100 µM; in the assay with KM12, > 100 µM (inactive); with MDA-N it was > 100 µM (inactive). For the same compound, the GI50 in the assay on NCI-H226, in the assay with SK-MEL-28, in the assay with TK-10, with U-251, in the assay with UACC-257 and in the assay on UACC-62 was > 100 µM (inactive) throughout.
